The text below walks through data of PubChem BioAssay AID220 (DTP/NCI, 2004).

In this test the test system is CD8F1 mice, subcutaneous mammary adenocarcinoma, T/C%. The experiment in a line: NCI In Vivo Anticancer Drug Screen. Data for tumor model Mammary Adenocarcinoma CD8F1 (subcutaneous) in CD8F1. The settings on record: higher = larger tumour. The gist of the method: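 Mice carrying transplanted tumors received test compound, and survival or tumor size was recorded. Each value is the treated-group measurement divided by the corresponding measurement in vehicle-dosed controls.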

Where [1] appears, read: endpoint: median tumor weight (est.), dose: 50.0 mg/kg/injection, schedule: Q07DX005 (ip), vehicle: saline.
The mark [2] stands for this setting: endpoint: median tumor weight (est.), dose: 50.0 mg/kg/injection, schedule: Q07DX005 (ip), vehicle: suspension in saline.
The mark [3] stands for this setting: endpoint: median tumor weight (est.), dose: 200.0 mg/kg/injection, schedule: Q07DX005 (ip), vehicle: suspension in saline.

Where “and” joins values, the source holds several entries; their conditions need not be identical. Equal entries are not always repeated. Results filed as inconclusive are left out.

With `N=c1nc2n(cc1F)[C@@H]1O[C@H](CO)[C@@H](O)[C@@H]1O2`, the T/C by setting is: (endpoint: median tumor weight (est.), dose: 12.5 mg/kg/injection, schedule: Q07DX005 (ip), vehicle: saline) 25 % of control; under setting [1], 71 % of control; under setting [2], 86 % of control; (endpoint: median tumor weight (est.), dose: 100.0 mg/kg/injection, schedule: Q07DX005 (ip), vehicle: saline) 68 % of control; (endpoint: median tumor weight (est.), dose: 100.0 mg/kg/injection, schedule: Q07DX005 (ip), vehicle: suspension in saline) 57 % of control; (endpoint: median tumor weight (est.), dose: 200.0 mg/kg/injection, schedule: Q07DX005 (ip), vehicle: saline) 56 % of control. In addition, the T/C runs as follows: under setting [3], 63 % of control; (endpoint: median tumor weight (est.), dose: 400.0 mg/kg/injection, schedule: Q07DX005 (ip), vehicle: saline) 33 % of control; (endpoint: median tumor weight (est.), dose: 400.0 mg/kg/injection, schedule: Q07DX005 (ip), vehicle: suspension in saline) 69 % of control; (endpoint: median tumor weight (est.), dose: 800.0 mg/kg/injection, schedule: Q07DX005 (ip), vehicle: suspension in saline) 58 % of control; (endpoint: median tumor weight (est.), dose: 1600.0 mg/kg/injection, schedule: Q07DX005 (ip), vehicle: suspension in saline) 72 % of control.

As to `O=[Te]=O`, the T/C was 73 % of control (endpoint: median tumor weight change, dose: 6.25 mg/kg/injection, schedule: Q01DX001 (ip), vehicle: suspension in saline); 83 % of control (endpoint: median tumor weight change, dose: 12.5 mg/kg/injection, schedule: Q01DX001 (ip), vehicle: suspension in saline); 61 % of control (endpoint: median tumor weight change, dose: 25.0 mg/kg/injection, schedule: Q01DX001 (ip), vehicle: suspension in saline); 94 % of control (endpoint: median tumor weight change, dose: 50.0 mg/kg/injection, schedule: Q01DX001 (ip), vehicle: suspension in saline); 106 % of control (endpoint: median tumor weight change, dose: 100.0 mg/kg/injection, schedule: Q01DX001 (ip), vehicle: suspension in saline).

As to `Nc1nc(=S)c2ncn(C3CC(O)C(CO)O3)c2[nH]1` (stereo not drawn), the T/C by setting is: (endpoint: median tumor weight (est.), dose: 10.0 mg/kg/injection, schedule: Q07DX005 (ip), vehicle: saline with Tween-80) 17 % of control and 37 % of control; (endpoint: median tumor weight (est.), dose: 12.5 mg/kg/injection, schedule: Q07DX005 (ip), vehicle: suspension in saline) 81 % of control; (endpoint: median tumor weight (est.), dose: 20.0 mg/kg/injection, schedule: Q07DX005 (ip), vehicle: saline with Tween-80) 9 % of control and 21 % of control; (endpoint: median tumor weight (est.), dose: 25.0 mg/kg/injection, schedule: Q07DX005 (ip), vehicle: suspension in saline) 101 % of control; (endpoint: median tumor weight (est.), dose: 40.0 mg/kg/injection, schedule: Q07DX005 (ip), vehicle: saline with Tween-80) 6 % of control and 7 % of control; under setting [2], 72 % of control. The T/C (endpoint: median tumor weight (est.), dose: 80.0 mg/kg/injection, schedule: Q07DX005 (ip), vehicle: saline with Tween-80) was 2 % of control and 5 % of control; the T/C under setting [3] was 62 % of control.

For the compound `Nc1ncnc2c1ccn2C1OC(CO)C(O)C1O` (stereo not drawn), the T/C reads like this: (endpoint: mean tumor weight, dose: 0.25 mg/kg/injection, schedule: Q01DX009 (ip), vehicle: saline) 162 % of control; (endpoint: mean tumor weight, dose: 0.5 mg/kg/injection, schedule: Q01DX009 (ip), vehicle: saline) 98 % of control; (endpoint: mean tumor weight, dose: 1.0 mg/kg/injection, schedule: Q01DX009 (ip), vehicle: saline) 114 % of control; (endpoint: mean tumor weight, dose: 1.0 mg/kg/injection, schedule: Q07DX005 (ip), vehicle: saline) 117 % of control; (endpoint: mean tumor weight, dose: 4.0 mg/kg/injection, schedule: Q07DX005 (ip), vehicle: saline) 361 % of control; (endpoint: median tumor weight (est.), dose: 0.5 mg/kg/injection, schedule: Q07DX005 (ip), vehicle: Klucel (hydroxypropylcellulose) (HPC)) 195 % of control. Further, for the setting “endpoint: median tumor weight (est.), dose: 8.0 mg/kg/injection, schedule: Q07DX005 (ip), vehicle: Klucel (hydroxypropylcellulose) (HPC)”, the T/C was 114 % of control.

For the compound `CN(C)CCN1C(=O)c2cccc3cc([N+](=O)[O-])cc(c23)C1=O`, the T/C is 57 % of control (endpoint: median tumor weight change, dose: 7.5 mg/kg/injection, schedule: Q01DX001 (ip), vehicle: saline with Tween-80); 91 % of control (endpoint: median tumor weight change, dose: 15.0 mg/kg/injection, schedule: Q01DX001 (ip), vehicle: saline with Tween-80); 55 % of control (endpoint: median tumor weight change, dose: 30.0 mg/kg/injection, schedule: Q01DX001 (ip), vehicle: saline with Tween-80).

For `CC[C@@H](C)[C@@H]1NC(=O)C(NC(=O)C(CC(C)C)N(C)C(=O)C2CCCN2C(=O)C(C)O)C(C)OC(=O)C(Cc2ccc(OC)cc2)N(C)C(=O)C2CCCN2C(=O)C(CC(C)C)NC(=O)C(C)C(=O)C(C(C)C)OC(=O)C[C@H]1O` (stereo partly drawn), the T/C runs as follows: (endpoint: median tumor weight change, dose: 20.0 micrograms/kg/injection, schedule: Q01DX001 (ip), vehicle: distilled water + alcohol) 73 % of control; (endpoint: median tumor weight change, dose: 40.0 micrograms/kg/injection, schedule: Q01DX001 (ip), vehicle: distilled water + alcohol) 55 % of control; (endpoint: median tumor weight change, dose: 300.0 micrograms/kg/injection, schedule: Q01DX001 (ip), vehicle: distilled water + alcohol) 63 % of control; (endpoint: median tumor weight change, dose: 320.0 micrograms/kg/injection, schedule: Q01DX001 (ip), vehicle: distilled water + alcohol) 88 % of control; (endpoint: median tumor weight change, dose: 600.0 micrograms/kg/injection, schedule: Q01DX001 (ip), vehicle: distilled water + alcohol) 71 % of control; (endpoint: median tumor weight change, dose: 1200.0 micrograms/kg/injection, schedule: Q01DX001 (ip), vehicle: distilled water + alcohol) 37 % of control.

Take `N=[N+]=CC(=O)OCC(N)C(=O)O` (stereo not drawn): the T/C by setting is: (endpoint: median tumor weight (est.), dose: 6.25 mg/kg/injection, schedule: Q07DX005 (ip), vehicle: clinical formulation) 76 % of control; (endpoint: median tumor weight (est.), dose: 6.25 mg/kg/injection, schedule: Q07DX005 (ip), vehicle: water) 58 % of control and 79 % of control; (endpoint: median tumor weight (est.), dose: 12.5 mg/kg/injection, schedule: Q07DX005 (ip), vehicle: clinical formulation) 71 % of control; (endpoint: median tumor weight (est.), dose: 25.0 mg/kg/injection, schedule: Q07DX005 (ip), vehicle: clinical formulation) 32 % of control; (endpoint: median tumor weight (est.), dose: 50.0 mg/kg/injection, schedule: Q07DX005 (ip), vehicle: clinical formulation) 29 % of control; (endpoint: median tumor weight (est.), dose: 50.0 mg/kg/injection, schedule: Q07DX005 (ip), vehicle: water) 65 % of control.

For the compound `NC1(C(=O)O)CCCC1`, the T/C (endpoint: mean tumor weight, dose: 5.0 mg/kg/injection, schedule: Q01DX009 (ip), vehicle: saline) was 89 % of control; the T/C (endpoint: mean tumor weight, dose: 10.0 mg/kg/injection, schedule: Q01DX009 (ip), vehicle: saline) was 30 % of control; the T/C (endpoint: mean tumor weight, dose: 12.5 mg/kg/injection, schedule: Q07DX005 (ip), vehicle: saline) is 40 % of control; the T/C (endpoint: mean tumor weight, dose: 12.5 mg/kg/injection, schedule: Q07DX007 (ip), vehicle: saline) is 104 % of control; the T/C (endpoint: mean tumor weight, dose: 20.0 mg/kg/injection, schedule: Q01DX009 (ip), vehicle: saline) is 5 % of control; the T/C (endpoint: mean tumor weight, dose: 25.0 mg/kg/injection, schedule: Q07DX004 (ip), vehicle: saline) is 81 % of control. The T/C was 122 % of control (endpoint: mean tumor weight, dose: 25.0 mg/kg/injection, schedule: Q07DX005 (ip), vehicle: saline); 123 % of control (endpoint: mean tumor weight, dose: 25.0 mg/kg/injection, schedule: Q07DX007 (ip), vehicle: saline); 119 % of control (endpoint: mean tumor weight, dose: 25.0 mg/kg/injection, schedule: Q07DX008 (ip), vehicle: saline); 6 % of control (endpoint: mean tumor weight, dose: 50.0 mg/kg/injection, schedule: Q07DX004 (ip), vehicle: saline); 9 % of control (endpoint: mean tumor weight, dose: 50.0 mg/kg/injection, schedule: Q07DX005 (ip), vehicle: saline); 5 % of control (endpoint: mean tumor weight, dose: 50.0 mg/kg/injection, schedule: Q07DX007 (ip), vehicle: saline). Moreover, the T/C reads like this: (endpoint: mean tumor weight, dose: 50.0 mg/kg/injection, schedule: Q07DX008 (ip), vehicle: saline) 43 % of control; (endpoint: median tumor weight (est.), dose: 25.0 mg/kg/injection, schedule: Q07DX005 (ip), vehicle: saline) 39 % of control; under setting [1], 28 % of control.

For the compound `CSC1SCC2C(=O)N(C)C(C(C)C)C(=O)OCC(NC(=O)c3cnc4ccccc4n3)C(=O)NC(C)C(=O)N(C)C1C(=O)N(C)C(C(C)C)C(=O)OCC(NC(=O)c1cnc3ccccc3n1)C(=O)NC(C)C(=O)N2C` (stereo not drawn), the T/C was 67 % of control (endpoint: mean tumor weight, dose: 7.5 micrograms/kg/injection, schedule: Q07DX005 (ip), vehicle: saline); 83 % of control (endpoint: mean tumor weight, dose: 15.0 micrograms/kg/injection, schedule: Q07DX005 (ip), vehicle: saline); 82 % of control (endpoint: median tumor weight (est.), dose: 7.5 micrograms/kg/injection, schedule: Q07DX005 (ip), vehicle: saline); 67 % of control (endpoint: median tumor weight (est.), dose: 15.0 micrograms/kg/injection, schedule: Q07DX005 (ip), vehicle: saline); 97 % of control (endpoint: median tumor weight (est.), dose: 30.0 micrograms/kg/injection, schedule: Q07DX005 (ip), vehicle: saline); 117 % of control (endpoint: median tumor weight (est.), dose: 60.0 micrograms/kg/injection, schedule: Q07DX005 (ip), vehicle: saline). In addition, the T/C (endpoint: median tumor weight (est.), dose: 120.0 micrograms/kg/injection, schedule: Q07DX005 (ip), vehicle: saline) is 76 % of control.
